test system: asymmetric di-methyl PABP1 in RKO cells; experiment: RKO methylation assay (In Cell Western for asymmetric di-methyl PABP1); type: cell-based; conditions: 48 hours incubation, read-out: Cellular IC50
From the text: RKO adherent cells were purchased from ATCC (American Type Culture Collection), Manassas, Va., USA. DMEM/Glutamax medium, penicillin-streptomycin, heat inactivated fetal bovine serum, 0.05% trypsin and D-PBS were purchased from Life Technologies, Grand Island, N.Y., USA. Odyssey blocking buffer, 800CW goat anti-rabbit IgG (H+L) antibody, and Licor Odyssey infrared scanner were purchased from Licor Biosciences, Lincoln, Nebr., USA. Asymmetric di-methyl PABP1 antibody was purchased from Cell Signaling Technology, Danvers, Mass., USA. Methanol was purchased from VWR, Franklin, Mass., USA. 10% Tween 20 was purchased from KPL, Inc., Gaithersburg, Md., USA. Paraformaldehyde (PFA) was purchased from EM Sciences. DRAQ5 was purchased from Biostatus Limited, Leicestershire, UK.
RKO adherent cells were maintained in growth medium (DMEM/Glutamax medium supplemented with 10% v/v heat inactivated fetal bovine serum and 100 units/mL penicillin-streptomycin) and cultured at 37° C. under 5% CO2.
Compound (100 nL) from a 96-well source plate was added directly to 384 well cell plate. Plates were incubated at 37° C., 5% CO2 for 48 hours. After two days of incubation, plates were brought to room temperature outside of the incubator for ten minutes and blotted on paper towels to remove cell media. Cells were fixed for 20 minutes at room temperature by adding 50 ul of 8% PFA followed by aspiration of supernatant with the Biotek EL406 plate washer. Cells were then permeabilized by addition of 50 μL of ice cold 100% methanol directly to each well and incubated for 30 min at room temperature. After 30 min, plates were transferred to a Biotek EL406 plate washer and washed 2 times with 100 μL per well of wash buffer (IX PBS). Next 60 μL per well of Odyssey blocking buffer (Odyssey Buffer with 0.1% Tween 20 (v/v)) were added to each plate and incubated 1 hour at room temperature. Blocking buffer was removed and 20 μL per well of primary antibody was added (asymmetric-methyl PABP1) diluted 1:400 in Odyssey buffer with 0.1% Tween 20 (v/v)) and plates were incubated overnight (16 hours) at 4° C. Plates were washed 5 times with 100 μL per well of wash buffer. Next 20 μL per well of secondary antibody was added (1:800 800CW goat anti-rabbit IgG (H+L) antibody, 1:2000 DRAQ5 in Odyssey buffer with 0.1% Tween 20 (v/v)) and incubated for 1 hour at room temperature. The plates were washed 5 times with 100 μL per well wash buffer then 2 times with 100 μL per well of water. Plates were allowed to dry at room temperature then imaged on the Licor Odyssey machine which measures integrated intensity at 700 nm and 800 nm wavelengths. Both 700 and 800 channels were scanned.
First, the ratio for each well was determined by:
Each plate included fourteen control wells of DMSO only treatment (minimum inhibition) as well as fourteen control wells for maximum inhibition treated with 20 μM of a reference compound. The average of the ratio values for each control type was calculated and used to determine the percent […] for each test well in the plate. Reference compound was serially diluted three-fold in DMSO for a total of nine test concentrations, beginning at 20 μM.
Percent inhibition was determined and IC50 curves were generated using triplicate wells per concentration of compound.

| SMILES | IC50 [µM] |
| --- | --- |
| CC(C)n1ncc2c(N3CCOCC3)cc(-c3cccc(OCC(O)CN)c3)nc21 (stereo not shown) [Example 11-1] | 10 to 20 |

same assay, conditions: Homo sapiens, 48 hours incubation, read-out: Cellular IC50

| SMILES | IC50 [µM] |
| --- | --- |
| CNCC(O)COc1cccc(-c2cc(N(C)CC3CCOCC3)c3cnn(C(C)C)c3n2)c1 (stereo not shown) [Example 48-1] | 10 to 20 |
| CCOC(=O)Nc1cc(-c2cccc(OCC(O)CN)c2)nc2c1cnn2C(C)C (stereo not shown) [Example 17-1] | > 20 |
| CC(C)n1ncc2c(NC3CC3)cc(-c3cccc(OCC(O)CN)c3)nc21 (stereo not shown) [Example 15-9] | > 20 |
| CNCC(O)COc1cccc(-c2cc(NCCCNC(=O)c3ccn(C)n3)c3cnn(C(C)C)c3n2)c1 (stereo not shown) [Example 60-1] | > 20 |
| CNCC(O)COc1cccc(-c2cc(NC(=O)NC3CCOCC3)c3cnn(C(C)C)c3n2)c1 (stereo not shown) [Example 2-1] | > 20 |
| CNCC(O)COc1cccc(-c2cc(NCCNC(=O)c3cccnc3)c3cnn(C(C)C)c3n2)c1 (stereo not shown) [Example 56-1] | > 20 |
| CNCC(O)COc1cccc(-c2cc(N3CCOCC3)c3cnn(C(C)C)c3n2)c1 (stereo not shown) [Example 20-1] | > 20 |
| CNC(=O)Nc1cc(-c2cccc(OCC(O)CN)c2)nc2c1cnn2C(C)C (stereo not shown) [Example 8-1] | > 20 |
| CNCC(O)COc1cccc(-c2cc(NC)c3cnn(C(C)C)c3n2)c1 (stereo not shown) [Example 22-9] | > 20 |
| CNCC(O)COc1cccc(-c2cc(NCCCN)c3cnn(C(C)C)c3n2)c1 (stereo not shown) [Example 15-1] | > 20 |
| CC(C)n1ncc2c(NC(=O)NC3CCOCC3)cc(-c3cccc(OCC(O)CN)c3)nc21 (stereo not shown) [Example 49-1] | > 20 |
| CC(C)n1ncc2c(NCc3cccc(O)c3)cc(-c3cccc(OCC(O)CN)c3)nc21 (stereo not shown) [Example 35-1] | > 20 |
| CC(C)n1ncc2c(NC(=O)OCc3ccccc3)cc(-c3cccc(OCC(O)CN)c3)nc21 (stereo not shown) [Example 51-1] | > 20 |
| CNCC(O)COc1cccc(-c2cc(NCCN)c3cnn(C(C)C)c3n2)c1 (stereo not shown) [Example 9-1] | > 20 |
| CNCC(O)COc1cccc(-c2cc(NC(=O)N(C)C)c3cnn(C(C)C)c3n2)c1 (stereo not shown) [Example 21-1] | > 20 |
| CC(C)n1ncc2c(NC3CCOCC3)cc(-c3cccc(OCC(O)CN)c3)nc21 (stereo not shown) [Example 19-1] | > 20 |
| CNCC(O)COc1cccc(-c2cc(NCc3ccccn3)c3cnn(C(C)C)c3n2)c1 (stereo not shown) [Example 34-1] | 10 to 20 |
| CC(C)n1ncc2c(NC(=O)N(C)C)cc(-c3cccc(OCC(O)CN)c3)nc21 (stereo not shown) [Example 14-1] | > 20 |
| CNCC(O)COc1cccc(-c2cc(NC(=O)OC)c3cnn(C(C)C)c3n2)c1 (stereo not shown) [Example 16-1] | 10 to 20 |
| COC(=O)Nc1cc(-c2cccc(OCC(O)CN)c2)nc2c1cnn2C(C)C (stereo not shown) [Example 10-1] | > 20 |
| CNCC(O)COc1cccc(-c2cc(NCc3cnc4ccccn34)c3cnn(C(C)C)c3n2)c1 (stereo not shown) [Example 53-1] | > 20 |
| CC(C)n1ncc2c(N3CCOCC3)cc(-c3cccc(OC[C@@H](O)CN)c3)nc21 [Example 12-1] | > 20 |
| CC(C)n1ncc2c(N(C)C3CCOCC3)cc(-c3cccc(OCC(O)CN)c3)nc21 (stereo not shown) [Example 28-1] | 10 to 20 |
| CNCC(O)COc1cccc(-c2cc(NCCNC(=O)c3ccn(C)n3)c3cnn(C(C)C)c3n2)c1 (stereo not shown) [Example 58-1] | > 20 |
| CNCC(O)COc1cccc(-c2cc(NCCCCNC(=O)c3ccn(C)n3)c3cnn(C(C)C)c3n2)c1 (stereo not shown) [Example 62-1] | > 20 |
| CNCC(O)COc1cccc(-c2cc(Nc3ccccn3)c3cnn(C(C)C)c3n2)c1 (stereo not shown) [Example 24-1] | > 20 |
| CNCC(O)COc1cccc(-c2cc(NCCCNC(=O)c3cccnc3)c3cnn(C(C)C)c3n2)c1 (stereo not shown) [Example 59-1] | > 20 |

| SMILES | IC50 [µM] |
| --- | --- |
| CNCC(O)COc1cccc(-c2cc(NCCCCCCN)c3cnn(C(C)C)c3n2)c1 (stereo not shown) [Example 43-1] | > 20 |
| CC(C)n1ncc2c(NCc3cnc4ccccn34)cc(-c3cccc(OCC(O)CN)c3)nc21 (stereo not shown) [Example 50-1] | > 20 |
| CC(C)n1ncc2c(N(C)CC3CCOCC3)cc(-c3cccc(OCC(O)CN)c3)nc21 (stereo not shown) [Example 42-1] | > 20 |
| Cc1c(CNc2cc(-c3cccc(OCC(O)CN)c3)nc3c2cnn3C(C)C)cnn1C (stereo not shown) [Example 37-1] | > 20 |
| CNCC(O)COc1cccc(-c2cc(N(C)C3CCOC3)n3ncc(C(C)C)c3n2)c1 (stereo not shown) [Example 14-6] | > 20 |
| CC(C)n1ncc2c(N3CCOCC3)cc(-c3cccc(OCC(O)CN)c3)nc21 (stereo not shown) [Example 3-1] | 10 to 20 |
| CNCC(O)COc1cccc(-c2cc(NCC3CCOCC3)c3cnn(C(C)C)c3n2)c1 (stereo not shown) [Example 41-1] | > 20 |
| CNCC(O)COc1cccc(-c2cc(NC3CCOCC3)c3cnn(C(C)C)c3n2)c1 (stereo not shown) [Example 29-1] | 10 to 20 |
| CC(C)n1ncc2c(N[C@H]3CO[C@@H]4OCC[C@@H]43)cc(-c3cccc(OCC(O)CN)c3)nc21 (stereo partly shown) [Example 38-1] | > 20 |
| CNCC(O)COc1cccc(-c2cc(NCCCCCNC(=O)c3cccnc3)c3cnn(C(C)C)c3n2)c1 (stereo not shown) [Example 63-1] | > 20 |
| CNCC(O)COc1cccc(-c2cc(NCCCCN)c3cnn(C(C)C)c3n2)c1 (stereo not shown) [Example 22-1] | > 20 |
| CNCC(O)COc1cccc(-c2cc(NC(=O)OCc3ccccc3)c3cnn(C(C)C)c3n2)c1 (stereo not shown) [Example 54-1] | > 20 |
| CNCC(O)COc1cccc(-c2cc(NCCCCCN)c3cnn(C(C)C)c3n2)c1 (stereo not shown) [Example 32-1] | > 20 |
| CNCC(O)COc1cccc(-c2cc(N3CCC(C(=O)OC)CC3)c3cnn(C(C)C)c3n2)c1 (stereo not shown) [Example 52-1] | > 20 |
| CNCC(O)COc1cccc(-c2cc(NCCCCCCNC(=O)c3cccnc3)c3cnn(C(C)C)c3n2)c1 (stereo not shown) [Example 65-1] | 10 to 20 |
| COC(=O)CNc1cc(-c2cccc(OCC(O)CN)c2)nc2c1cnn2C(C)C (stereo not shown) [Example 16-9] | > 20 |
| CNCC(O)COc1cccc(-c2cc(NCc3cnn(C)c3C)c3cnn(C(C)C)c3n2)c1 (stereo not shown) [Example 46-1] | 10 to 20 |
| CC(C)n1ncc2c(NCc3ccncc3)cc(-c3cccc(OCC(O)CN)c3)nc21 (stereo not shown) [Example 26-1] | > 20 |
| CNCC(O)COc1cccc(-c2cc(NC3CC3)c3cnn(C(C)C)c3n2)c1 (stereo not shown) [Example 18-9] | > 20 |
| CNCC(O)COc1cccc(-c2cc(N(C)c3ccccn3)c3cnn(C(C)C)c3n2)c1 (stereo not shown) [Example 33-1] | 10 to 20 |
| CNCC(O)COc1cccc(-c2cc(N(C)C3CCOCC3)c3cnn(C(C)C)c3n2)c1 (stereo not shown) [Example 40-1] | 5 to 10 |
| CNCC(O)COc1cccc(-c2cc(N[C@H]3CO[C@@H]4OCC[C@@H]43)c3cnn(C(C)C)c3n2)c1 (stereo partly shown) [Example 47-1] | > 20 |
| CC(C)n1ncc2c(NCC3CCOCC3)cc(-c3cccc(OCC(O)CN)c3)nc21 (stereo not shown) [Example 30-1] | > 20 |
| CNCC(O)COc1cccc(-c2cc(NCCCCNC(=O)c3cccnc3)c3cnn(C(C)C)c3n2)c1 (stereo not shown) [Example 61-1] | > 20 |
| CNCC(O)COc1cccc(-c2cc(NCC(=O)OC)c3cnn(C(C)C)c3n2)c1 (stereo not shown) [Example 23-1] | > 20 |
| COc1nc(C)cc(C)c1CNc1cc(-c2cccc(OCC(O)CN)c2)nc2c1cnn2C(C)C (stereo not shown) [Example 55-1] | > 20 |
| CC(C)n1ncc2c(NCc3cccnc3)cc(-c3cccc(OCC(O)CN)c3)nc21 (stereo not shown) [Example 25-1] | > 20 |

Reference: patent US20170283440A1, “CARM1 INHIBITORS AND USES THEREOF” (Epizyme, Inc., priority 2014, published 2017)
